“Also recorded” adds a separate entry of the source.
Assays:
STAT3 = STAT3 phosphorylation in NIT-1 cells (immunoblotting); format: cell-based, mouse; conditions: NIT-1, 100 nM
Protocol: In addition to 22RV1, the effects of SHLPs on ERK and STAT3 phosphorylation were also studied in NIT-1 pancreatic β-cells. […] Indeed, the activation profile caused by SHLP3 in NIT-1 is remarkably similar to that stimulated by SHLP2 in 22RV1. When ERK activation was quantified by ELISA, a 6-fold and 9-fold activation was observed after 2 and 24 h, respectively, by SHLP2.

[1] = test system: 22RV1 human prostate cancer cells; assay: Cell proliferation (cell number by MTT/MTS cleavage) in 22RV1 cells; format: cell-based; conditions: 22RV1, 100 nM peptide, 72 h
Protocol: SHLPs exert distinct effects on cell proliferation. Whether SHLPs have the capacity to influence cell proliferation, in addition to their intrinsic effects on apoptosis induction, was also investigated. Mouse NIT-1 insulinoma β-cells and 22RV1 human prostate cancer cells were serum starved for 24 h, followed by 72 h incubation with 100 nM scrambled control peptide, HN or SHLPs. Cell number, as a measure of cell proliferation, was assessed by cleavage of MTT substrate.
Pro-apoptotic effect on human prostate cancer cells in vitro. To assess the ability of SHLP6 to induce apoptosis in human prostate cancer cells, PC-3, 22RV1 or DU145 cells were incubated in serum free (SF) media for 24 h followed by 24 h incubation with 1 μM scrambled (control) peptide or SHLP6. Apoptosis was assessed by ELISA for fragmentation of histone-associated DNA. In each cell line tested, SHLP6 induced apoptosis by at least 2-fold (FIG. 2), confirming highly significant physiological effects of this novel peptide. To determine whether the effects of SHLP6 were specific to induction of apoptosis, or if it also elicited growth-inhibitory effects, PC-3, DU-145, 22RV1, LAPC4 and LNCaP cells were incubated in SF media for 24 h followed by 72 h incubation with 1 μM SHLP6. Cell number, as a measure of cell proliferation, was assessed by cleavage of MTS substrate.

[2] = test system: Mouse NIT-1 insulinoma β-cells; assay: Apoptosis ELISA (fragmentation of histone-associated DNA) in NIT-1 cells; format: cell-based; conditions: for Effect on apoptosis in the presence of IGFBP-3: NIT-1, 1 μg/ml IGFBP-3 plus SHLP; for Effect of SHLP on apoptosis after PD98059 pre-treatment: NIT-1, 25 μM PD98059 (ERK1/2 inhibitor)
Protocol: SHLPs are anti-apoptotic in 22RV1 prostate cancer cells and NIT-1 β-cells. […] Mouse NIT-1 insulinoma β-cells and 22RV1 human prostate cancer cells were serum starved for 24 h, followed by 24 h incubation with 100 nM scrambled control peptide, HN or SHLPs. Apoptosis was assessed and quantified by ELISA for fragmentation of histone-associated DNA.
ERK activation is necessary for SHLP-induced inhibition of apoptosis in NIT-1 and 22RV1 cells. To determine the significance of ERK activation for apoptosis inhibition by SHLPs 2 and 3, PD98059 (PD), a specific chemical inhibitor of ERK1/2, was utilized. 22RV1 and NIT-1 cells were serum starved for 24 h in the presence or absence of 25 μM PD or 1 μM wortmannin (PI3-kinase inhibitor; negative control), followed by 24 h incubation with […] scrambled control peptide, SHLP2 or SHLP3. Apoptosis was then assessed by ELISA for fragmentation of histone-associated DNA.
Role of IGFBP-3 in effects of SHLPs on cell survival. Since IGFBP-3 is an important regulator of HN action, IGFBP-3 was tested for a possible role in regulating the anti- or pro-apoptotic actions of SHLPs. NIT-1 cells were incubated with 1 μg/ml IGFBP-3±0, 10, 100 or 1000 nM SHLP2 or 3 for 24 h. Apoptosis induction was assessed by ELISA for fragmentation of histone-associated DNA.
Co-incubation of SHLPs. To evaluate therapeutic uses involving co-treatment with SHLPs, the effect of HN±SHLPs on apoptosis was tested in both 22RV1 and NIT-1 cells. Cells were incubated in SF media for 24 h followed by 24 h with 100 nM HN, SHLP or peptide combination. Apoptosis was assessed by ELISA for fragmentation of histone-associated DNA. Cells were treated with all possible double peptide combinations. Although many peptide combinations had no additive or combined effects compared with the actions of the peptides individually, co-treatment with certain combinations led to unexpected functional changes (FIG. 11). […] Thus, specific SHLPs may either act on complementary pathways, or interact with each other, leading to change of function of one or both peptides. When the same experiments were repeated in NIT-1 cells, similar, but different, change of function effects were observed (FIG. 11B).

HAEC'S = assay: Intracellular ROS production (DHE fluorescence) in HAEC; format: cell-based; conditions: 0.1 nM peptide over night, oxidized LDL 100 μg protein/ml 30 min
Protocol: SHLPs suppress intracellular production of Reactive Oxygen Species (ROS). ROS production was monitored by following the conversion of the oxidant-sensitive dye dihydroethidine to the fluorescent ethidium (DHE) for measuring the cellular ability to produce Reactive Oxygen Species. HAEC'S plated on glass cover slips were incubated over night with 0.1 nM SHLP2 or SHLP6 versus regular cultured medium. For ROS measurement, cells were incubated for 30 min with 10 μM DHE in HBSS containing calcium magnesium and glucose at 37° c. Then cells were treated with Oxidized LDL 100 μg protein/ml for 30 minutes at 37° c. Samples were imaged under fluorescence microscope with a Texas Red filter corresponding to the fluorescence of DHE. Average fluorescence intensity was used to evaluate the changes of intracellular ROS generation, results are expressed in relative fluorescence unit (RFU) representing average intensity per cell area.

biotinylated-HN = biotinylated-HN (Homo sapiens, UniProt Q8IVG9); assay: Dot-blot binding to biotinylated-HN; conditions: 2, 5 or 10 nmol peptide dotted on nitrocellulose
Protocol: To test a dimerization hypothesis, we performed a dot-blot using biotinylated-HN. Two, 5 or 10 nmol IGF-I (negative control), HN (positive control) or SHLP peptide were dotted on to nitrocellulose membrane, and their ability to bind to biotinylated-HN was assessed immunologically. […] Specific interactions that occur may be determined using, e.g., dot blots with biotinylated SHLPs, and/or antibodies against specific SHLPs.

[3] = NIT-1, 0, 10, 100 or 1000 nM SHLP, 24 h

Sequence of biotinylated-HN (Q8IVG9 whole entry): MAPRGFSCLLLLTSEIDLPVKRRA

Row | Sequence | STAT3 activation/phosphorylation (immunoblotting) (STAT3) | Cell number as a measure of cell proliferation [1] | Apoptosis (fragmentation of histone-associated DNA) [2, 3] | Effect on apoptosis in the presence of IGFBP-3 ([2]; 24 h) | Effect of SHLP on apoptosis after PD98059 pre-treatment [2] | Intracellular ROS production (DHE fluorescence) (HAEC'S) | Binding to biotinylated-HN (dot-blot) (biotinylated-HN) | SHLP-induced cell survival after wortmannin pre-treatment ([2]; NIT-1, 1 μM wortmannin (PI3-kinase inhibitor)) | Apoptosis (fragmentation of histone-associated DNA) ([2]; NIT-1, serum starved 24 h, then 24 h with 100 nM peptide)
1 | MLGYNFSSFPCGTISIAPGFNFYRLYFIWVNGLAKVVW [SHLP3, small humanin-like peptide, mtDNA 1707-1821] | only slightly stimulate | much greater effect | reduced levels of apoptosis | inhibit IGFBP-3-induced apoptosis | abrogated | – | – | – | –
2 | MGVKFFTLSTRFFPSVQRAVPLWTNS [SHLP2, small humanin-like peptide, mtDNA 2092-2170] | temporally similar to the timing of ERK activation | much greater effect | dose dependent inhibition of apoptosis | unaffected by the presence of IGFBP-3 | abrogated | suppresses ROS production; also recorded: suppresses production of reactive oxygen species | weak interaction; also recorded: binds | not in NIT-1 cells | significantly inhibited
